The nature of this data set: gradient 5% acetonitrile 3 min, to 50% in 2 min, to 85% in 15 min, held 3 min, 100 µL/min. Particulars: column: Zorbax Extend-C18 2.1 x 50 mm; eluents: water / acetonitrile, 0.1% formic acid. The method in brief:
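Retention times of pure standards were taken from adduct peaks that were selected by computer and manually inspected. Over 3 months, mixtures of ~100 molecules were run by HPLC–quadrupole time-of-flight mass spectrometry in positive and negative ionization mode. The Zorbax Extend-C18 column (2.1 × 50 mm, 1.8 μm) ran at 100 μL/min in water and acetonitrile, each containing 0.1% formic acid, with 40 μL dead volume and 900 μL dwell volume.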
`O=C(O)c1cc(-c2ccc(Cl)s2)nc2ccccc12` had an RP-LC retention time of 1070 s.
The figure for `CCN1C(=O)COc2ccc(-c3csc(NC(=O)c4ccccc4OC)n3)cc21` is 1040 s; for `Cc1ccc(Nc2cc(C)nc(N3CCN(C(=O)c4ccco4)CC3)n2)cc1` it is 590 s; for `O=S(=O)(c1cccc(Cl)c1)N1CCC(c2noc(-c3ccccc3)n2)CC1` it is 1160 s.
Next, `COC1CN(c2cccc(F)c2)C12CCN(C(=O)NC1CCCCC1)CC2` (centres undefined): 1030 s; `CC(=O)N1CCC(C(=O)Nc2nnc(C3CC3)s2)CC1`: 605 s; `N#Cc1ccc2c(c1)N(CCCN1CCC(O)CC1)c1ccccc1S2`: 743 s.
Compound `CCCn1cc(C(=O)NC2CCN(Cc3ccccc3)CC2)c2cccnc21` displayed an RP-LC retention time of 624 s.
Next, `CCCC(=O)Nc1ccc2c(c1)CN(C(=O)c1cccc(Cl)c1)C(C(=O)N(C)C)C2` (centres undefined): 759 s.
The figure for `CCCN(CC1CCOC1)C(=O)Nc1ccc(C)c(C)c1` (centres undefined) is 869 s.
Next, `CCN(CC)c1nc2cc(C(=O)NCCC(C)C)ccc2c(=O)n1-c1ccccc1`: 1090 s; `O=C(Nc1cccc(-c2ccc(N3CCOCC3)nn2)c1)Nc1ccc2c(c1)OCCO2`: 659 s; `Fc1ccc(-c2nc(-c3ccc(-n4cccn4)nc3)no2)c(Cl)c1`: 1300 s.
`COc1cc(NC(=O)CN2CCN(Cc3ccccc3)C(=O)C2=O)cc(OC)c1OC` registered an RP-LC retention time of 669 s.
The figure for `CCCn1cc(C(=O)Nc2ccc3c(c2)OCCO3)c2cccnc21` is 833 s; for `O=C(NCc1noc(CCc2ccccc2)n1)c1ccc(-c2noc(C3CC3)n2)cc1` it is 977 s.
Take `O=C(C1CCN(c2nc3ccsc3c(=O)n2-c2ccccc2)CC1)N1CCN(c2ccccc2)CC1`: the RP-LC retention time was 917 s.
Next, `COc1ccc(-c2nc3cnccn3c2NCCC(=O)Nc2ccc3c(c2)OCCO3)cc1`: 676 s; `Cc1ccc(CNC(=O)CCc2nnc3c4cc(-c5ccccc5)nn4ccn23)o1`: 749 s.
The figure for `O=C(Cc1cccs1)N1CCN(c2ccc(=O)n(-c3cccc(Cl)c3)n2)CC1` is 822 s.
Next, `COCCOC1CCN(S(=O)(=O)Cc2ccccc2F)CC1`: 809 s; `CCOc1ccc(NC(=O)N2CC(=O)N(CC(=O)N3CCC(C(N)=O)CC3)c3ccccc32)cc1`: 660 s.
The compound `COCCCNC(=O)C1CCN(C(=O)c2cc3oc(C)cc3n2Cc2c(F)cccc2Cl)CC1` showed an RP-LC retention time of 826 s.
The figure for `O=C(N[C@H]1C[C@@H]2C[C@H]1CN2C(=O)NCc1cccc(F)c1)c1cccs1` is 738 s; for `O=C(CCCN1C(=O)c2cccc3cccc(c23)C1=O)Nc1ccon1` it is 723 s.
Next, `Cc1cccc(CCNC(=O)c2cc3n(n2)CC(C)(C(=O)NCc2ccccc2)N(C)C3=O)c1` (centres undefined): 814 s; `COc1ccccc1-c1noc(C2CCCN2C(=O)Nc2cccc(F)c2)n1` (centres undefined): 894 s.
Next, `Cc1ccc2c(c1)C(=O)NC1(CCN(C(=O)Cc3ccc(Cl)cc3)CC1)N2C`: 850 s; `Cc1ccc(Nc2nc(C)cc(N3CCN(C(=O)Nc4cccc(C(F)(F)F)c4)CC3)n2)cc1`: 806 s; `Cc1ccc(N2CC(c3noc(-c4ccc(C(C)(C)C)cc4)n3)CC2=O)cc1` (centres undefined): 1310 s.
`Cc1ccc(-c2cc(C(=O)NCCN3CCCC3)n(C)c2)cc1`: the RP-LC retention time amounted to 670 s.
On to `CN1C(=O)C2(CCN(C(=O)C3CCCCC3)CC2)c2ccccc21`, for which the RP-LC retention time worked out at 899 s.
As for `O=C(CCc1csc(NC(=O)NC2CCCCC2)n1)NCCC1=CCCCC1`, the RP-LC retention time came to 843 s.
Next, `Cc1nc(-c2ccc(C(=O)N3CCC(C)CC3)cc2)cs1`: 904 s; `CCn1c(CCNC(=O)c2ccc(N(C)C)cc2)nc2cccnc21`: 625 s; `Cc1ccc2c(c1)NC(=O)C(CC(=O)N1CCN(c3cccc(C)c3C)CC1)CO2` (centres undefined): 781 s.
The compound `Cc1nc(-c2ccc(C(=O)N(C)C)c(F)c2)no1` displayed an RP-LC retention time of 693 s.
The figure for `Cc1ccccc1-c1nc2ccccc2n1CC(N)=O` is 616 s; for `CN(C)C[C@@H]1CN(Cc2cccnc2)C[C@H]1NC(=O)C1(c2ccccc2)CC1` it is 557 s; for `CCc1ccc2nc(Nc3ncc4c(n3)CC(c3ccc(OC)cc3)CC4=O)nc(C)c2c1` (centres undefined) it is 820 s.
The figure for `CC(NC(=O)C1CCCN(C(=O)c2cc3sccc3n2C)C1)C12CC3CC(CC(C3)C1)C2` (centres undefined) is 1090 s.
The figure for `CCN1C(=O)COc2ccc(-c3noc(-c4ccc(OC)cc4OC)n3)cc21` is 1040 s; for `COC(=O)C1=CN(c2cc(Cl)c(OC)cc2OC)c2cc(F)ccc2S1(=O)=O` it is 918 s.
`NC(=O)C1CCN(C(=O)C2CCN(S(=O)(=O)Cc3ccc(Cl)cc3)CC2)CC1` had an RP-LC retention time of 678 s.
In turn, `CCc1ccc(CNC(=O)C2(CC)CCCCC(=O)N2)cc1` (centres undefined) registered an RP-LC retention time of 771 s.
Next, `CC1CC(C)CN(CCCNC(=O)CCCn2c(=O)c3cccn3c3ccccc32)C1` (centres undefined): 659 s; `COC(=O)N[C@@H](C)CNc1nccc(-c2cn(C(C)C)nc2-c2cc(Cl)cc(NS(C)(=O)=O)c2F)n1`: 792 s; `Cc1ccc(-n2nc3c(N4CCCC(C(=O)NCc5ccccc5)C4)nnc(C)c3c2C)cc1` (centres undefined): 754 s.
Next, `COC(=O)c1cc2c(cc1NC(=O)C1CCCN(c3ncnc4c3nc3n4CCCCC3)C1)OCO2` (centres undefined): 943 s; `O=C(CCC1CCN(c2cc(NC3CC3)ncn2)CC1)NCc1cc(F)cc(F)c1`: 673 s; `CCCCNC(=O)C1CCN(Cc2cc3ccccc3n2Cc2cccc(C)c2)CC1`: 800 s.
Next, `CCN1CCN(CCNC(=O)C(C)n2c3ccccc3c3cnn(C)c(=O)c32)CC1` (centres undefined): 544 s; `COc1ccc(-c2nc3ccc(Br)cn3c2Nc2ccc(C)cc2)cc1O`: 742 s.
For the compound `COC(=O)c1cccc(Nc2ncccc2S(N)(=O)=O)c1`, the RP-LC retention time worked out at 777 s.
Regarding `COc1ccc(-c2c(C)noc2NC(C)=O)cc1S(=O)(=O)Nc1cc(Cl)ccc1C`, the RP-LC retention time amounted to 792 s.
The figure for `O=C(O)CCNc1c(-c2ccc(F)cc2)nc2cnccn12` is 619 s; for `CN1CCC(NC(=O)c2ccc(-c3nnc4ccc(NC(=O)C5CCC5)cn34)cc2)CC1` it is 606 s.
The figure for `Cc1ccc(NC(=O)N2CCc3nc(-c4ccc(Cl)cc4)ncc3C2)cc1` is 783 s; for `Cc1nn(C)cc1C(C)NC(=O)C1CCN(c2cn[nH]c(=O)c2)CC1` (centres undefined) it is 568 s.
The figure for `CSc1nc2nc3c(cn2n1)C(=O)CC(C)C3` (centres undefined) is 705 s.
In the case of `Cc1nc(-c2ccncc2)nc2c1CCC(=O)N2CC1CCCCC1`, the RP-LC retention time was 918 s.
The figure for `O=c1c2sccc2n(Cc2nc(-c3ccc(Br)cc3)no2)c(=O)n1-c1ccc(F)cc1` is 1100 s; for `COc1ccc(CNC(=O)C2CCN(c3nccnc3Sc3ccccc3)CC2)c(OC)c1` it is 983 s; for `CCOc1ccc(C(=O)NC(C(=O)Nc2nc3ccccc3[nH]2)C(C)C)cc1OCC` (centres undefined) it is 735 s.
The figure for `COc1ccc(-c2noc(CN3N=NC4C(=O)N(c5ccc(OC)c(OC)c5)C(=O)C43)n2)cc1OC` (centres undefined) is 798 s.
The compound `Cc1ccccc1CNS(=O)(=O)c1cc2c(s1)CCN(C(=O)C1CCC1)C2` came in with an RP-LC retention time of 942 s.
Next, `CC1Cc2cc(S(=O)(=O)N3CCN(c4ccccn4)CC3)ccc2N1C(=O)C1CC1` (centres undefined): 668 s.
Next, `CC(C)(C)NC(=O)CCc1c(-c2ccc(Br)cc2)nc2ccccn12`: 681 s; `CNc1cccnc1OC1CCN(Cc2ccccn2)C1` (centres undefined): 577 s; `Cc1nc(NC2=NCN(Cc3cccnc3)CN2)nc2c(C)cccc12`: 592 s.
The figure for `CC(C)c1noc(COC2CCN(C(=O)NCc3ccco3)CC2)n1` is 739 s; for `CCN(CC)CCNC(=O)c1cc2n(n1)CCCN(Cc1ccc(F)cc1)C2=O` it is 556 s; for `O=C(CCn1c(N2CCCC2)nc2ccsc2c1=O)N1CCN(c2ccccn2)CC1` it is 609 s.
In the case of `Cc1nc(-c2ccccc2)sc1C(=O)Nc1c(C)nc2ccc(Cl)cn2c1=O`, the RP-LC retention time turned out to be 737 s.
`Cc1ccc(S(=O)(=O)C2=C(O)C(=O)N(Cc3ccco3)C2c2ccc(F)cc2)cc1` (centres undefined) showed an RP-LC retention time of 931 s.
In turn, `Cc1cc(OCC(=O)NCc2cccs2)nc(-c2ccc(Cl)cc2)n1` returned an RP-LC retention time of 1050 s.
Turning to `Cc1nn2c(CNS(=O)(=O)c3ccc(C)c(Cl)c3)c(-c3ccccc3)nc2s1`, the RP-LC retention time amounted to 962 s.
The figure for `CCCN1CCN(C(=O)CN(C)S(=O)(=O)c2ccc3c(c2)CCCC(=O)N3)CC1` is 577 s; for `CCc1ccc(C(C)NC(=O)c2cccc(C3CCCN(C(=O)NC)C3)c2)cc1` (centres undefined) it is 888 s.

The values above are taken from the METLIN SMRT retention time set (Domingo-Almenara et al. 2019).
